Assay results published in publication PMC5925831, “Enhancement of the catalytic activity of Isopentenyl diphosphate isomerase (IDI) from Saccharomyces cerevisiae through random and site-directed mutagenesis” (Microbial Cell Factories, 2018).

Assays:
[1] = target: T1, IDI (isopentenyl diphosphate isomerase from Saccharomyces cerevisiae) (Saccharomyces cerevisiae, UniProt P15496); conditions: 50 mM MOPS, 20 mM MgCl2, 5% glycerol, pH 7.5, 30 °C (activity assay); substrate range printed as 1–1000 mmol/L
T1 construct: gene IDI1
T1 sequence (P15496 2-288): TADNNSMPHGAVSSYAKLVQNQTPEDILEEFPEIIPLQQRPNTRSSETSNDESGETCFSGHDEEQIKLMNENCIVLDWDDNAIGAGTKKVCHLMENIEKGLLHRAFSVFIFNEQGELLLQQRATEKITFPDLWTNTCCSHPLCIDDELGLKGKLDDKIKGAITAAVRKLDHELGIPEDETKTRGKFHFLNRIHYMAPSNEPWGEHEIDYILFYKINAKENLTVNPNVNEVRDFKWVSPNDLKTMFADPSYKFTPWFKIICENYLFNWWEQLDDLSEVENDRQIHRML
Source text: (§1) GC of isoprene released from DMAPP by acid and heat; double-reciprocal plot on IDI (isopentenyl diphosphate isomerase from Saccharomyces cerevisiae)

[2] = target: T2, IDI (isopentenyl diphosphate isomerase from Saccharomyces cerevisiae) (Saccharomyces cerevisiae, UniProt P15496, Y195F/W256C, form not given); conditions: 50 mM MOPS, 20 mM MgCl2, 5% glycerol, pH 7.5, 30 °C (activity assay); substrate range printed as 1–1000 mmol/L
T2 construct: gene IDI1
T2 sequence (P15496 2-288 Y195F/W256C, form open): as the sequence (P15496 2-288) above, with Y194F, W255C counted along it
Source text: as §1

C=C(C)CCO[P@@](=O)(O)OP(=O)(O)O [isopentenylpyrophosphate]
Km [1]: 41.5 ± 0.39 µM | Km [2]: 37.6 ± 0.17 µM
